Experiments:
[1] = Pharmacokinetic study of testosterone transdermal matrix patch in surgically menopausal women: total and free testosterone; assay type: in vivo, human; settings: 300 mcg/day patch; for concentration at 3.5 day: female, human, serum, time-average change from baseline, mean±SEM
Method: One group had received no estrogen replacement therapy (ERT) for at least one month, the second group was receiving transdermal estadiol (E2) at a dosage of 0.1 mg/day, and the third group was receiving oral conjugated equine estrogens (CEE) at a dosage of 1.25 mg/day. […] The resultant hormone data (mean±SEM) for the three groups of surgically menopausal women participating in the clinical study is summarized in Table 2 below.
It should be noted that the normal range for SHBG levels is 36 to 185 nmol/L using the Endocrine Sciences assay.

[2] = Estimated testosterone delivery rate for a given increase in free testosterone, power-law regression of FIG. 2; assay type: in vivo, human
[3] = test system: sexual function, mood and well-being; assay: Example 1: 12-week coadministration of oral estrogen and transdermal testosterone, sexual function, mood and well-being; assay type: in vivo, human; settings: transdermal patch 300 mcg/day twice weekly plus oral Premarin 0.625 to 2.5 mg daily; after 12 weeks; surgically menopausal women
Text: The duration of coadministration was 12 weeks.

[4] = Example 1: serum hormone levels on the regimen; settings: Example 1 regimen; for bioavailability: female, human, in vivo
Method: The estrogen consisted of conjugated equine estrogen (Premarin® tablets) at a daily dose of 0.625 to 2.5 mg. […] The duration of coadministration was 12 weeks.

[5] = target: T1, sex hormone binding globulin (SHBG) (Homo sapiens, UniProt P04278); settings: adapted from Dunn et al. 1981; human plasma; cited from earlier work
T1 sequence (P04278 30-402): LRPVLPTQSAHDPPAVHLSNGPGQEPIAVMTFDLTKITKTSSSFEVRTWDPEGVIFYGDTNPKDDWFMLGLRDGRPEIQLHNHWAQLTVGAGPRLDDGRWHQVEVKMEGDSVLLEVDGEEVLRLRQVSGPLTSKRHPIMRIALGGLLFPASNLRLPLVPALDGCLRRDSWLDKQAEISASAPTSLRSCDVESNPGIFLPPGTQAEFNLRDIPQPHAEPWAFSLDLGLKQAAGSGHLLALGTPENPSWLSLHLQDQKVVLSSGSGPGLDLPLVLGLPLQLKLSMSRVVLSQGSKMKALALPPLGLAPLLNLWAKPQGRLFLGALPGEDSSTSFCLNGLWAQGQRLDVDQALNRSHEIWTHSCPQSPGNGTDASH

[6] = Predicted change in total testosterone, power-law regression of FIG. 1; settings: for concentration at 3.5 day: human, serum, other: transdermal
[7] = Change in FT 1 pg/mL, SHBG 50 nmol/L
[8] = Change in FT 1 pg/mL, SHBG 84 nmol/L
[9] = Change in FT 1 pg/mL, SHBG 100 nmol/L
[10] = Change in FT 1 pg/mL, SHBG 200 nmol/L
[11] = Change in FT 1 pg/mL, SHBG 400 nmol/L
[12] = Change in FT 1 pg/mL, SHBG 600 nmol/L
[13] = Change in FT 1 pg/mL, SHBG 700 nmol/L
[14] = Change in FT 2.5 pg/mL, SHBG 50 nmol/L
[15] = Change in FT 2.5 pg/mL, SHBG 84 nmol/L
[16] = Change in FT 2.5 pg/mL, SHBG 100 nmol/L
[17] = Change in FT 2.5 pg/mL, SHBG 200 nmol/L
[18] = Change in FT 2.5 pg/mL, SHBG 400 nmol/L
[19] = Change in FT 2.5 pg/mL, SHBG 600 nmol/L
[20] = Change in FT 2.5 pg/mL, SHBG 700 nmol/L
[21] = Change in FT 5 pg/mL, SHBG 50 nmol/L
[22] = Change in FT 5 pg/mL, SHBG 84 nmol/L
[23] = Change in FT 5 pg/mL, SHBG 100 nmol/L
[24] = Change in FT 5 pg/mL, SHBG 200 nmol/L
[25] = Change in FT 5 pg/mL, SHBG 400 nmol/L
[26] = Change in FT 5 pg/mL, SHBG 600 nmol/L
[27] = Change in FT 5 pg/mL, SHBG 700 nmol/L
[28] = Change in FT 10 pg/mL, SHBG 50 nmol/L
[29] = Change in FT 10 pg/mL, SHBG 84 nmol/L
[30] = Change in FT 10 pg/mL, SHBG 100 nmol/L
[31] = Change in FT 10 pg/mL, SHBG 200 nmol/L
[32] = Change in FT 15 pg/mL, SHBG 50 nmol/L
[33] = Change in FT 15 pg/mL, SHBG 84 nmol/L
[34] = Change in FT 15 pg/mL, SHBG 100 nmol/L
[35] = Change in FT 15 pg/mL, SHBG 200 nmol/L
[36] = Change in FT 15 pg/mL, SHBG 400 nmol/L
[37] = Change in FT 15 pg/mL, SHBG 600 nmol/L
[38] = Change in FT 15 pg/mL, SHBG 700 nmol/L

C[C@]12CC[C@H]3[C@@H](CCC4=CC(=O)CC[C@@]43C)[C@@H]1CC[C@@H]2O [testosterone, (17)-17-Hydroxyandrost-4-en-3-one]
mean increase in free serum testosterone lower in oral estrogen group than other two groups [1]: approximately 40%
mean increase in total serum testosterone greater in oral estrogen group than other two groups ([1]; time-averaged change from baseline): approximately 30%
concentration at 3.5 day ([1]; other: transdermal patch, with Transdermal E2 0.1 mg/day, n=12, read-out: Changes in Free T): 0.0042 ± 0.0007 ng/mL
concentration at 3.5 day ([1]; other: transdermal patch, with Transdermal E2 0.1 mg/day, n=12, read-out: Changes in Total T): 0.536 ± 0.072 ng/mL
concentration at 3.5 day ([1]; other: transdermal patch, 300 mcg/day, No ERT, n=19, 3.5 day application, read-out: Changes in Total T): 0.572 ± 0.044 ng/mL
concentration at 3.5 day ([1]; other: transdermal patch, 300 mcg/day, No ERT, n=19, read-out: Changes in Free T): 0.0046 ± 0.0004 ng/mL
concentration at 3.5 day ([1]; po, with Oral CEE 1.25 mg/day, n=13, read-out: Changes in Free T): 0.00256 ± 0.0003 ng/mL
concentration at 3.5 day ([1]; po, with Oral CEE 1.25 mg/day, n=13, read-out: Changes in Total T): 0.708 ± 0.096 ng/mL
Estimated Delivery Rate [2, 7]: 55 µg/day
Estimated Delivery Rate [2, 8]: 69 µg/day
Estimated Delivery Rate [2, 9]: 74 µg/day
Estimated Delivery Rate [2, 10]: 98 µg/day
Estimated Delivery Rate [2, 11]: 131 µg/day
Estimated Delivery Rate [2, 12]: 155 µg/day
Estimated Delivery Rate [2, 13]: 166 µg/day
Estimated Delivery Rate [2, 14]: 139 µg/day
Estimated Delivery Rate [2, 15]: 172 µg/day
Estimated Delivery Rate [2, 16]: 185 µg/day
Estimated Delivery Rate [2, 17]: 246 µg/day
Estimated Delivery Rate [2, 18]: 328 µg/day
Estimated Delivery Rate [2, 19]: 388 µg/day
Estimated Delivery Rate [2, 20]: 414 µg/day
Estimated Delivery Rate [2, 21]: 277 µg/day
Estimated Delivery Rate [2, 22]: 344 µg/day
Estimated Delivery Rate [2, 23]: 369 µg/day
Estimated Delivery Rate [2, 24]: 492 µg/day
Estimated Delivery Rate [2, 25]: 656 µg/day
Estimated Delivery Rate [2, 26]: 111 µg/day
Estimated Delivery Rate [2, 27]: 828 µg/day
Estimated Delivery Rate [2, 28]: 554 µg/day
Estimated Delivery Rate [2, 29]: 687 µg/day
Estimated Delivery Rate [2, 30]: 739 µg/day
Estimated Delivery Rate [2, 31]: 985 µg/day
Estimated Delivery Rate ([2]; Change in FT 10 pg/mL, SHBG 400 nmol/L): 1313 µg/day
Estimated Delivery Rate ([2]; Change in FT 10 pg/mL, SHBG 600 nmol/L): 1553 µg/day
Estimated Delivery Rate ([2]; Change in FT 10 pg/mL, SHBG 700 nmol/L): 1656 µg/day
Estimated Delivery Rate [2, 32]: 831 µg/day
Estimated Delivery Rate [2, 33]: 1031 µg/day
Estimated Delivery Rate [2, 34]: 1108 µg/day
Estimated Delivery Rate [2, 35]: 1477 µg/day
Estimated Delivery Rate [2, 36]: 1969 µg/day
Estimated Delivery Rate [2, 37]: 2330 µg/day
Estimated Delivery Rate [2, 38]: 2484 µg/day
sexual function, mood and well-being in comparison to conjugated equine estrogen alone [3]: improved sexual function, mood and well-being
women with free testosterone level below 6.8 pg/mL [4]: 78%
women with free testosterone level below 15 pg/mL [4]: 97%
women with total testosterone levels in excess of 80 ng/dL [4]: 73%
bioavailability ([4]; women with bioavailable testosterone level below 12.7 ng/dL): 68%
bioavailability ([4]; women with bioavailable testosterone level below 35 ng/dL): 97%
K (binding affinity constant for SHBG) [5]: 1600 10^6 Liter/mole
Predicted Changes in Total Testosterone [6, 7]: 9 ng/dL
Predicted Changes in Total Testosterone [6, 8]: 12 ng/dL
Predicted Changes in Total Testosterone [6, 9]: 14 ng/dL
Predicted Changes in Total Testosterone [6, 10]: 23 ng/dL
Predicted Changes in Total Testosterone [6, 11]: 37 ng/dL
Predicted Changes in Total Testosterone [6, 12]: 49 ng/dL
Predicted Changes in Total Testosterone [6, 13]: 55 ng/dL
Predicted Changes in Total Testosterone [6, 14]: 21 ng/dL
Predicted Changes in Total Testosterone [6, 15]: 31 ng/dL
Predicted Changes in Total Testosterone [6, 16]: 35 ng/dL
Predicted Changes in Total Testosterone [6, 17]: 57 ng/dL
Predicted Changes in Total Testosterone [6, 18]: 92 ng/dL
Predicted Changes in Total Testosterone [6, 19]: 123 ng/dL
Predicted Changes in Total Testosterone [6, 20]: 137 ng/dL
Predicted Changes in Total Testosterone [6, 21]: 43 ng/dL
Predicted Changes in Total Testosterone [6, 22]: 61 ng/dL
Predicted Changes in Total Testosterone [6, 23]: 69 ng/dL
Predicted Changes in Total Testosterone [6, 24]: 113 ng/dL
Predicted Changes in Total Testosterone [6, 25]: 184 ng/dL
Predicted Changes in Total Testosterone [6, 26]: 245 ng/dL
Predicted Changes in Total Testosterone [6, 27]: 273 ng/dL
Predicted Changes in Total Testosterone [6, 28]: 85 ng/dL
Predicted Changes in Total Testosterone [6, 29]: 123 ng/dL
Predicted Changes in Total Testosterone [6, 30]: 139 ng/dL
Predicted Changes in Total Testosterone [6, 31]: 226 ng/dL
Predicted Changes in Total Testosterone [6, 32]: 128 ng/dL
Predicted Changes in Total Testosterone [6, 33]: 184 ng/dL
Predicted Changes in Total Testosterone [6, 34]: 208 ng/dL
Predicted Changes in Total Testosterone [6, 35]: 339 ng/dL
Predicted Changes in Total Testosterone [6, 36]: 553 ng/dL
Predicted Changes in Total Testosterone [6, 37]: 736 ng/dL
Predicted Changes in Total Testosterone [6, 38]: 820 ng/dL
concentration at 3.5 day ([6]; 1313 mcg/day): 3.68 ng/mL
concentration at 3.5 day ([6]; 1553 mcg/day): 4.9 ng/mL
concentration at 3.5 day ([6]; 1656 mcg/day): 5.47 ng/mL
concentration at 3.5 day ([6]; 2484 mcg/day): 8.2 ng/mL

Reference: patent US8551516B2, “Administration of non-oral androgenic steroids to women” (Actavis, Inc., priority 1999, dated 2013)
